In article PMC10746112, “Synthesis and Pro-Apoptotic Effects of Nitrovinylanthracenes and Related Compounds in Chronic Lymphocytic Leukaemia (CLL) and Burkitt’s Lymphoma (BL)” (Molecules, 2023):
Values joined by “and” are separate entries in the source; they are usually repeats but may differ in a detail not shown here. Identical values can stand only once. Like-named read-outs stand apart in the source and are kept apart here.

Columns and labels:
[1] = test system: MUTU-I Burkitt’s lymphoma cell line; details: cited from earlier work; for IC50: read-out: IC50 MUTU-I, previous work
[2] = test system: DG-75 Burkitt’s lymphoma cell line; details: read-out: IC50 DG-75; previous work; cited from earlier work
PGA-1 CLL cell line = assay: alamarBlue cell viability assay; details: 24 h; for % Viability PGA-1: 10 µM
HG-3 CLL cell line = assay: alamarBlue cell viability assay; details: 24 h; for viability at 10 µM: read-out: % Viability HG-3, 10 µM, 24 h
[3] = test system: DG-75 Burkitt’s lymphoma cell line; assay: alamarBlue cell viability assay; details: for viability at 1 µM / viability at 10 µM: Homo sapiens, DG-75, 48 h; for % Viable Cells Remaining DG-75: 48 h
[4] = test system: MUTU-I Burkitt’s lymphoma cell line; assay: alamarBlue cell viability assay; details: 24 h; for viability at 1 µM / viability at 10 µM: MUTU-I
[5] = test system: MUTU-I Burkitt’s lymphoma cell line; details: human, 24 h, 10 µM
[6] = CLL cell, read-out: % Viability PGA-1, 10 µM, 24 h
[7] = read-out: % Viable Cells Remaining DG-75, 1 µM, 48 h
[8] = read-out: % Viable Cells Remaining DG-75, 10 µM, 48 h
[9] = read-out: % Viable Cells Remaining MUTU-1, 1 µM, 24 h
[10] = read-out: % Viable Cells Remaining MUTU-1, 10 µM, 24 h
[11] = read-out: % Viable Cells Remaining MUTU-1
[12] = read-out: % Viable Cells Remaining DG-75

Row | Structure (SMILES) | viability at 1 µM [3, 7] | viability at 10 µM [3, 8] | viability at 1 µM [4, 9] | viability at 10 µM [4, 10] | other results
1 | CC/C(=C\c1cc(Br)ccc1OC)[N+](=O)[O-] [Compound 10a, (E)-4-bromo-1-methoxy-2-(2-nitrobut-1-en-1-yl)benzene, reference compound] | – | – | – | – | IC50 [1]: 450 nM; IC50 [2]: 1410 nM; viability at 1 µM (PGA-1 CLL cell line; CLL cell, read-out: % Viability PGA-1, 1 µM, 24 h): 96.4%; viability at 10 µM (PGA-1 CLL cell line; [6]): 0.97%
2 | COc1ccc2c(c1)OC(c1ccccc1)C([N+](=O)[O-])=C2 (stereo not drawn) [Compound 10b, reference compound] | – | – | – | – | IC50 [1]: 470 nM; IC50 [2]: 1920 nM
3 | O=[N+]([O-])/C(=C/c1ccc(Cl)cc1)Cc1ccc(Cl)cc1 [Compound 10c, reference compound] | – | – | – | – | IC50 [1]: 2970 nM; IC50 [2]: 6390 nM
4 | C/C(=C\c1ccc(F)cc1)[N+](=O)[O-] [Compound 11c] | – | – | – | – | % Viable Cells Remaining MUTU-1 24 h 10 µM ([1]; nitrostyrenes, 10 µM, 24 h): 19.06%; viability at 10 µM (HG-3 CLL cell line; CLL cell): 8.76%; viability at 10 µM (PGA-1 CLL cell line; [6]): 3.7%
5 | CC/C(=C\c1ccccc1F)[N+](=O)[O-] [Compound 11d] | – | – | – | – | % Viability HG-3 (HG-3 CLL cell line; 10 µM): 0.66%; viability at 1 µM (HG-3 CLL cell line; CLL cell, read-out: % Viability HG-3, 1 µM, 24 h): 14.5%; % Viability PGA-1 (PGA-1 CLL cell line): 0.02%
6 | C/C(=C\c1c2ccccc2cc2ccccc12)[N+](=O)[O-] [Compound 19b, (E)-9-(2-nitroprop-1-en-1-yl)anthracene] | 102% | 89.3% | 99.8% | 88.2% | viability at 10 µM (HG-3 CLL cell line; CLL cell): 82%; viability at 10 µM (PGA-1 CLL cell line; [6]): 81%
7 | CC/C(=C\c1c2ccccc2cc2ccccc12)[N+](=O)[O-] [Compound 19c] | 83.8% | 92.3% | 88.6% | 78% | viability at 10 µM (HG-3 CLL cell line; CLL cell): 72%; viability at 10 µM (PGA-1 CLL cell line; [6]): 66%
8 | O=[N+]([O-])/C=C/c1c2ccccc2c(Cl)c2ccccc12 [Compound 19d] | 75.1% | 57.1% | 70.8% | 7.6% | viability at 10 µM (HG-3 CLL cell line; CLL cell): 97%; % Viable Cells Remaining MUTU-1 [5]: 7.61%; viability at 10 µM (PGA-1 CLL cell line; [6]): 51.8%
9 | C/C(=C\c1c2ccccc2c(Cl)c2ccccc12)[N+](=O)[O-] [Compound 19e] | 82.5% | 99.6% | 105% | 98.6% | viability at 10 µM (HG-3 CLL cell line; CLL cell): 87%; % Viable Cells Remaining MUTU-1 [5]: 98.6%
10 | CC/C(=C\c1c2ccccc2c(Cl)c2ccccc12)[N+](=O)[O-] [Compound 19f, (E)-9-chloro-10-(2-nitrobut-1-en-1-yl)anthracene] | 105% | 78% | 96.6% | 97.5% | % Viable Cells Remaining MUTU-1 [5]: 97.5%
11 | O=[N+]([O-])/C=C/c1c2ccccc2c(Br)c2ccccc12 [Compound 19h, (E)-9-Bromo-10-(2-Nitrovinyl)Anthracene] | 84.8% | 70% | 51.2% | 3.36% | melting point: 227 to 230 °C; viability at 10 µM (PGA-1 CLL cell line; [6]): 36.9%
12 | O=[N+]([O-])/C=C/c1c2ccccc2c(-c2ccccc2)c2ccccc12 [Compound 19j, (E)-9-(2-Nitrovinyl)-10-Phenylanthracene] | 83.5% | 1.5% | 68.5% | 1.29% | –
13 | O=[N+]([O-])/C=C/c1c2cccc(Cl)c2cc2c(Cl)cccc12 [Compound 19k, (E)-1,8-Dichloro-10-(2-Nitrovinyl)Anthracene] | 88.7% | 0.15% | 71% | -0.18% | –
14 | O=[N+]([O-])/C=C/c1cc2ccccc2c2ccccc12 [Compound 21, (E)-9-(2-Nitrovinyl)phenanthrene] | 99.5% | 60% | – | – | viability at 10 µM (HG-3 CLL cell line; CLL cell): 29%; % Viable Cells Remaining DG-75 ([3]; 10 µM): 62.2%; viability at 10 µM (PGA-1 CLL cell line; [6]): 11.8%; viability at 1 µM [4, 11]: 73.6%; viability at 10 µM [4, 11]: 1.68%
15 | N#CC(C#N)=Cc1c2ccccc2cc2ccccc12 [Compound 23a] | – | – | – | – | viability at 1 µM [3, 12]: 104%; viability at 10 µM [3, 12]: 98.1%; viability at 10 µM (PGA-1 CLL cell line; CLL cell, read-out: % Viability PGA-1): > 50%; viability at 1 µM [4, 11]: 91.9%; viability at 10 µM [4, 11]: 65.3%
16 | N#CC(C#N)=Cc1c2ccccc2c(Cl)c2ccccc12 [Compound 23b, 2-((10-Chloroanthracen-9-yl)Methylene)Malononitrile] | – | – | – | – | melting point: 196 to 198 °C; % Viable Cells Remaining DG-75 ([3]; 1 µM): 85.59%; % Viable Cells Remaining DG-75 ([3]; 10 µM): ~ 55% and 52.84%; % Viability PGA-1 (PGA-1 CLL cell line): > 50%; % Viable Cells Remaining MUTU-1 ([4]; 1 µM): 92.59%; % Viable Cells Remaining MUTU-1 ([4]; 10 µM): ~ 20% and 16.78%
17 | N#C/C=C/c1c2ccccc2cc2ccccc12 [Compound 23c] | 84.2% | 82% | 88.1% | 86.9% | –
18 | OCc1c2ccccc2cc2ccccc12 [Compound 26, anthracen-9-ylmethanol] | 102% | 93% | 106% | 94.9% | –
19 | ClCc1c2ccccc2cc2ccccc12 [Compound 27, 9-(chloromethyl)anthracene] | 79% | 85.5% | 102% | 93.8% | % Viable Cells Remaining MUTU-1 [5]: 93.8%
20 | N#CCc1c2ccccc2cc2ccccc12 [Compound 28, 2-(anthracen-9-yl)acetonitrile] | 93.8% | 85.2% | 95.2% | 88.8% | –
21 | c1ccc2c(CN3CCCCCC3)c3ccccc3cc2c1 [Compound 29a] | 83.6% | 89.3% | 103% | 99% | –
22 | c1ccc2c(CN3CCCC3)c3ccccc3cc2c1 [Compound 29b] | 93.2% | 97.2% | 108% | 106% | –
23 | N/N=C/c1c2ccccc2cc2ccccc12 [Compound 32a] | 104% | 102% | 97.5% | 95.5% | –
24 | N/N=C/c1c2ccccc2c(Cl)c2ccccc12 [Compound 32b] | 94.8% | 100% | 105% | 82.5% | –
25 | O/N=C/c1c2ccccc2cc2ccccc12 [Compound 32c] | 92.5% | 101% | 99.2% | 92.7% | –
26 | O/N=C/Cc1c2ccccc2cc2ccccc12 [Compound 32e] | 102% | 93% | 103% | 94.9% | –
27 | CCN(CC)C(=O)c1c2ccccc2cc2ccccc12 [Compound 33a] | 90.1% | 90.5% | 105% | 103% | –
28 | O=C(c1c2ccccc2cc2ccccc12)N1CCOCC1 [Compound 33e] | 86.1% | 80.2% | 86.9% | 85.2% | –
29 | CNCCCC12CCC(c3ccccc31)c1ccccc12 [Maprotiline, maprotiline, reference compound] | 102% | 65% | 93.1% | 72% | –
